Test results taken from patent US20180221369A1, “COMPOSITIONS AND METHODS FOR TREATING FIBROSING DISORDERS AND CANCER” (Cedars-Sinai Medical Center, priority 2014, published 2018).

Experiments:
[1] = tested on: chronic pancreatitis stellate cells (hCP); assay: Transwell migration assay with SDF-1, chronic pancreatitis stellate cells; assay type: cell-based, human; settings: SDF-1 0.025 μM, 2 h; siRNA 100 nM 48 h, AMD3100 5-50 μM or INNO-406 10-100 nM 60 minutes
Description: (§1) The migration assays were performed by using transwell migration assays with polycarbonate membrane inserts with 8 μm pore size that is optimal for fibroblast-like cell migration (Corning Incorporated, NY, cat #3422). Stellate cells were treated with siRNA (100 nM) for 48 h, or with increasing concentrations of AMD3100 (5 μM-50 μM) or INNO-406 (10 nM-100 nM) for 60 minutes. Then, cells were placed in the migration upper chambers, in the presence or absence of SDF-1 (0.025 μM) with 2% FBS in the lower chambers. After 2 h of incubation, cells migrated to the lower chamber were counted, and the chemotactic index was determined as follows:
(§2) (number of cells migrating to SDF-1 chemokine)/(number of cells migrating to medium alone)
(§3) To distinguish chemotaxis versus chemokinesis, a control checkerboard analysis was performed.

[2] = tested on: normal stellate cells (hNP); settings: SDF-1 0.025 μM, 2 h, AMD3100 5-50 μM 60 minutes
Description: as §1, §2, §3

[3] = 120 mg INNO-406/kg per day orally to mice; estimated according to previously described pharmacokinetic studies; cited from earlier work
[4] = tested on: cerulein-induced pancreatic fibrosis; assay: Cerulein-induced pancreatic fibrosis (chronic pancreatitis) mouse model, Picro-Sirius Red quantitation; assay type: in vivo, C57BL/6J mice; settings: cerulein plus 120 mg INNO-406/kg per day oral gavage for 6 weeks; cerulein alone 16.39+/−3.08%, untreated 2.00+/−0.84%
Description: There is no optimal animal model available for human pancreatitis-induced fibrosis, to date. However, a most commonly used experimental model of chronic pancreatitis (CP) partially recapitulating human disease is repeated injection of cerulein into mice (Ulmasov, B. et al. Am J Pathol. 183, 692-708 (2013)). C57BL/6 is the most frequently used mouse strain for this type of biomedical research. In our current experiments, C57BL/6J mice (2 months old male and female) were divided into 3 groups (each group consisted of 15 animals) as follows: (1) untreated mice (saline only); (2) mice treated with cerulein for 6 weeks (50 μg/kg hourly, 6 hourly injections in one day constituted one treatment, twice-weekly); (3) mice treated with cerulein (as above) plus 120 mg INNO-406/kg per day for 6 weeks (oral gavage). When 120 mg INNO-406/kg per day is administrated orally to the mice, the concentration of INNO-406 in the soft tissues is estimated to be 0.24 μM according to pharmacokinetic studies described previously (Kimura, S. et al. Blood., 106, 3948-3954 (2005); Yokota, A, et al. Blood, 109, 306-314 (2007)). […] Picro sirius red quantitation were performed using Leica Biosystem Tissue IA Optimizer web-based program that measures positive stained intensity per area at 10× magnification. […]

c1cc(CN2CCCNCCNCCCNCC2)ccc1CN1CCCNCCNCCCNCC1 [AMD3100]
SDF-1/CXCR4-induced chemotaxis (chemotactic index) [1]: could be blocked | SDF-1/CXCR4-induced chemotaxis (chemotactic index) [2]: could be blocked

Cc1ccc(NC(=O)c2ccc(CN3CC[C@H](N(C)C)C3)c(C(F)(F)F)c2)cc1Nc1nccc(-c2cncnc2)n1 [INNO-406, Bafetinib]
concentration of INNO-406 in the soft tissues [3]: 240 nM | pancreatic fibrosis (Picro-Sirius Red positive stained area per total area) [4]: 7.50+/−4.77%
